# According to PubChem BioAssay (NCI):
#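 In this assay, cells in 96-well plates receive the compound at five concentrations for 48 hours. Endpoints are linearly interpolated between the surrounding concentrations. GI50 marks 50% less growth. Definition used: TGI = concentration required for complete inhibition of growth.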
# Tests used:
# Assay in all cases: NCI anticancer screen, dose series, 48 h
# EKVX NSCLC = test system: EKVX NSCLC
# CAKI-1 renal = test system: CAKI-1 renal
# HS 578T breast = test system: HS 578T breast
# DU-145 prostate = test system: DU-145 prostate
# MOLT-4 leukemia = test system: MOLT-4 leukemia
# NCI-H226 lung = test system: NCI-H226 lung
# U251 CNS = test system: U251 CNS
# MALME-3M melanoma = test system: MALME-3M melanoma
# BT-549 breast = test system: BT-549 breast
# K-562 leukemia = test system: K-562 leukemia
smiles,measurement,setting,value
COC(=O)C1=CO[C@@H](OC2OC(CO)C(O)C(O)C2O)[C@@H]2[C@H](C)[C@@H](O)[C@@H](O)[C@]12O (some centres undefined),TGI,EKVX NSCLC,> 100 µM
same,TGI,CAKI-1 renal,> 100 µM
same,TGI,HS 578T breast,> 100 µM
same,TGI,DU-145 prostate,> 100 µM
same,TGI,MOLT-4 leukemia,> 100 µM
same,TGI,NCI-H226 lung,> 100 µM
same,TGI,U251 CNS,> 100 µM
same,TGI,MALME-3M melanoma,> 100 µM
same,TGI,BT-549 breast,> 100 µM
COC(=O)[C@@H]1[C@H](O)[C@H](C)[C@H](O)[C@H](C)/C=C\C=C(C)C(=O)Nc2c(C)c(OC(C)=O)c3c(c2O)C(=O)C(C)=C2OCOC(=C23)C(C)=C[C@@](C)(O)[C@H](O)[C@@H](C)[C@H]1OC(C)=O,TGI,K-562 leukemia,> 100 µM
same,TGI,EKVX NSCLC,> 100 µM
same,TGI,HS 578T breast,> 100 µM
same,TGI,DU-145 prostate,> 100 µM
same,TGI,MOLT-4 leukemia,> 100 µM
same,TGI,NCI-H226 lung,> 100 µM
same,TGI,U251 CNS,> 100 µM
same,TGI,MALME-3M melanoma,> 100 µM
same,TGI,BT-549 breast,> 100 µM
CCOC(=O)Nc1ccc(C(=O)/C=C/c2ccccc2)cc1,GI50,K-562 leukemia,8.28 µM
same,TGI,K-562 leukemia,> 100 µM
same,GI50,EKVX NSCLC,37.5 µM
same,TGI,EKVX NSCLC,> 100 µM
same,GI50,CAKI-1 renal,79 µM
same,TGI,CAKI-1 renal,> 100 µM
same,GI50,HS 578T breast,30.9 µM
same,TGI,HS 578T breast,86 µM
same,GI50,DU-145 prostate,22.8 µM
same,TGI,DU-145 prostate,85.1 µM
same,GI50,MOLT-4 leukemia,27.9 µM
same,TGI,MOLT-4 leukemia,> 100 µM
same,GI50,NCI-H226 lung,19.8 µM
same,TGI,NCI-H226 lung,68.6 µM
same,GI50,U251 CNS,12.6 µM
same,TGI,U251 CNS,30.4 µM
same,GI50,MALME-3M melanoma,77.4 µM
same,TGI,MALME-3M melanoma,> 100 µM
same,GI50,BT-549 breast,26.5 µM
same,TGI,BT-549 breast,67.8 µM
N#CSCC1CC(O)(c2ccccc2)CC(c2ccc(Cl)cc2)O1 (centres undefined),GI50,K-562 leukemia,2.41 µM
same,TGI,K-562 leukemia,9.77 µM
same,GI50,EKVX NSCLC,4.19 µM
same,TGI,EKVX NSCLC,17.7 µM
same,GI50,CAKI-1 renal,3.2 µM
same,TGI,CAKI-1 renal,9.51 µM
same,GI50,HS 578T breast,3.24 µM
same,TGI,HS 578T breast,13.2 µM
same,GI50,DU-145 prostate,2.18 µM
same,TGI,DU-145 prostate,4.72 µM
same,GI50,MOLT-4 leukemia,1.29 µM
same,TGI,MOLT-4 leukemia,5 µM
same,GI50,NCI-H226 lung,5.79 µM
same,TGI,NCI-H226 lung,35.6 µM
same,GI50,U251 CNS,2.64 µM
same,TGI,U251 CNS,9.03 µM
same,GI50,MALME-3M melanoma,2.65 µM
same,TGI,MALME-3M melanoma,7.35 µM
same,GI50,BT-549 breast,2.35 µM
same,TGI,BT-549 breast,4.83 µM
CC(C)C[C@H]1C(=O)N2CCC[C@H]2[C@]2(O)O[C@](NC(=O)[C@@H]3C=C4c5cccc6[nH]c(Br)c(c56)C[C@H]4N(C)C3)(C(C)C)C(=O)N12,TGI,K-562 leukemia,> 100 µM
same,TGI,EKVX NSCLC,> 100 µM
same,TGI,CAKI-1 renal,> 100 µM
same,TGI,HS 578T breast,> 100 µM
same,TGI,DU-145 prostate,> 100 µM
same,TGI,MOLT-4 leukemia,> 100 µM
same,TGI,NCI-H226 lung,> 100 µM
same,TGI,U251 CNS,> 100 µM
same,TGI,MALME-3M melanoma,> 100 µM
same,TGI,BT-549 breast,> 100 µM
Cc1ccc(S(=O)(=O)NNC(C[N+](=O)[O-])c2ccccc2)cc1 (centres undefined),TGI,K-562 leukemia,> 100 µM
same,TGI,EKVX NSCLC,> 100 µM
same,TGI,CAKI-1 renal,47.7 µM
same,TGI,HS 578T breast,> 100 µM
same,TGI,DU-145 prostate,> 100 µM
same,TGI,MOLT-4 leukemia,> 100 µM
same,TGI,NCI-H226 lung,90 µM
same,TGI,U251 CNS,60.5 µM
same,TGI,MALME-3M melanoma,71.3 µM
same,TGI,BT-549 breast,34.3 µM
CN(C)CCCN1c2ccc(O)cc2Sc2ccc(Cl)cc21,TGI,K-562 leukemia,16.8 µM
same,TGI,EKVX NSCLC,35.9 µM
same,TGI,CAKI-1 renal,16 µM
same,TGI,HS 578T breast,23.1 µM
same,TGI,DU-145 prostate,31.8 µM
same,TGI,MOLT-4 leukemia,17.5 µM
same,TGI,NCI-H226 lung,24.7 µM
same,TGI,U251 CNS,21.6 µM
same,TGI,MALME-3M melanoma,24 µM
same,TGI,BT-549 breast,25.2 µM
CCCC(CCC)Oc1ccc(CCCC2=C(O)c3ccccc3C(=O)C2=O)cc1,GI50,K-562 leukemia,3.31 µM
same,TGI,K-562 leukemia,10.7 µM
same,GI50,EKVX NSCLC,5.61 µM
same,TGI,EKVX NSCLC,18 µM
same,GI50,CAKI-1 renal,2.46 µM
same,TGI,CAKI-1 renal,8.66 µM
same,GI50,HS 578T breast,11.7 µM
same,TGI,HS 578T breast,37.4 µM
same,GI50,DU-145 prostate,6.71 µM
same,TGI,DU-145 prostate,19 µM
same,GI50,MOLT-4 leukemia,3.25 µM
same,TGI,MOLT-4 leukemia,11.5 µM
same,GI50,NCI-H226 lung,4.24 µM
same,TGI,NCI-H226 lung,20.8 µM
same,GI50,U251 CNS,5.37 µM
same,TGI,U251 CNS,17.5 µM
same,GI50,MALME-3M melanoma,7.53 µM
same,TGI,MALME-3M melanoma,23.5 µM
same,GI50,BT-549 breast,8.74 µM
same,TGI,BT-549 breast,20.9 µM
CNC1=CC(=O)C2=C(C1=O)C1C3=C(C(=O)C(Br)=C(OC)C3=O)C2c2ccccc21 (centres undefined),GI50,K-562 leukemia,1.35 µM
same,TGI,K-562 leukemia,3.01 µM
same,GI50,EKVX NSCLC,1.53 µM
same,TGI,EKVX NSCLC,3.31 µM
same,GI50,CAKI-1 renal,1.89 µM
same,TGI,CAKI-1 renal,4.83 µM
same,GI50,HS 578T breast,2.72 µM
same,TGI,HS 578T breast,22.1 µM
same,GI50,DU-145 prostate,5.9 µM
same,TGI,DU-145 prostate,20.8 µM
same,GI50,MOLT-4 leukemia,1.12 µM
same,TGI,MOLT-4 leukemia,> 50 µM
same,GI50,NCI-H226 lung,6.66 µM
same,TGI,NCI-H226 lung,14.7 µM
same,GI50,U251 CNS,1.41 µM
same,TGI,U251 CNS,4.26 µM
same,GI50,MALME-3M melanoma,6.84 µM
same,TGI,MALME-3M melanoma,17.9 µM
same,GI50,BT-549 breast,1.6 µM
same,TGI,BT-549 breast,5.3 µM
CCCC(=O)O[C@]1(C)CC[C@@H]2[C@H]3[C@@H]1[C@@H]1C/C(C)=C\CC[C@](C)(OC(=O)[C@@H]2C)[C@H]3O1,GI50,EKVX NSCLC,68.3 µM
same,TGI,EKVX NSCLC,> 100 µM
same,GI50,CAKI-1 renal,31.7 µM
same,TGI,CAKI-1 renal,> 100 µM
same,GI50,HS 578T breast,40 µM
same,TGI,HS 578T breast,> 100 µM
same,GI50,DU-145 prostate,74.5 µM
same,TGI,DU-145 prostate,> 100 µM
same,GI50,MOLT-4 leukemia,14.7 µM
same,TGI,MOLT-4 leukemia,30.5 µM
same,GI50,NCI-H226 lung,41.3 µM
same,TGI,NCI-H226 lung,> 100 µM
same,GI50,U251 CNS,41.8 µM
same,TGI,U251 CNS,> 100 µM
same,GI50,MALME-3M melanoma,61.1 µM
same,TGI,MALME-3M melanoma,> 100 µM
same,GI50,BT-549 breast,61.9 µM
same,TGI,BT-549 breast,> 100 µM
O=C(NCCNC(=O)c1ccc(F)cc1)Nc1ccc(-n2cc(-c3ccncc3)c(-c3ccc(Cl)c(O)c3)n2)cc1,GI50,EKVX NSCLC,1.36 µM
same,TGI,EKVX NSCLC,> 100 µM
same,GI50,HS 578T breast,0.462 µM
same,TGI,HS 578T breast,> 100 µM
same,GI50,DU-145 prostate,0.411 µM
same,TGI,DU-145 prostate,> 100 µM
same,GI50,MOLT-4 leukemia,0.356 µM
same,TGI,MOLT-4 leukemia,3.54 µM
same,GI50,NCI-H226 lung,0.809 µM
same,TGI,NCI-H226 lung,6.48 µM
same,GI50,U251 CNS,0.391 µM
same,TGI,U251 CNS,2.64 µM
same,GI50,MALME-3M melanoma,0.714 µM
same,TGI,MALME-3M melanoma,2.43 µM
same,GI50,BT-549 breast,0.338 µM
same,TGI,BT-549 breast,2.91 µM
CCCCCCCC(=O)NS(=O)(=O)c1ccccc1,TGI,K-562 leukemia,> 100 µM
same,TGI,EKVX NSCLC,> 100 µM
same,TGI,CAKI-1 renal,> 100 µM
same,TGI,HS 578T breast,> 100 µM
same,TGI,DU-145 prostate,> 100 µM
same,TGI,MOLT-4 leukemia,> 100 µM
same,TGI,U251 CNS,> 100 µM
same,TGI,MALME-3M melanoma,> 100 µM
same,TGI,BT-549 breast,> 100 µM
CSC(=NC#N)S/C=C/C(=O)c1cccc2ccccc12,GI50,K-562 leukemia,29.2 µM
same,TGI,K-562 leukemia,> 100 µM
same,GI50,EKVX NSCLC,26.4 µM
same,TGI,EKVX NSCLC,> 100 µM
same,GI50,CAKI-1 renal,14.7 µM
same,TGI,CAKI-1 renal,33.9 µM
same,GI50,HS 578T breast,40.4 µM
same,TGI,HS 578T breast,> 100 µM
same,GI50,DU-145 prostate,39.1 µM
same,TGI,DU-145 prostate,> 100 µM
same,GI50,MOLT-4 leukemia,8.46 µM
same,TGI,MOLT-4 leukemia,> 100 µM
same,GI50,U251 CNS,31.3 µM
same,TGI,U251 CNS,> 100 µM
same,GI50,MALME-3M melanoma,15.8 µM
same,TGI,MALME-3M melanoma,38.6 µM
same,GI50,BT-549 breast,20.1 µM
same,TGI,BT-549 breast,56 µM
C[n+]1cc2cc3c(cc2c2ccccc21)OCO3,GI50,K-562 leukemia,7.24 µM
same,TGI,K-562 leukemia,> 100 µM
same,GI50,CAKI-1 renal,46.4 µM
same,TGI,CAKI-1 renal,> 100 µM
same,GI50,HS 578T breast,2 µM
same,TGI,HS 578T breast,7.71 µM
same,GI50,DU-145 prostate,4.49 µM
same,TGI,DU-145 prostate,25.9 µM
same,GI50,MOLT-4 leukemia,4.02 µM
same,TGI,MOLT-4 leukemia,> 100 µM
same,GI50,NCI-H226 lung,2.4 µM
same,TGI,NCI-H226 lung,32.2 µM
same,GI50,U251 CNS,1.33 µM
same,TGI,U251 CNS,11.3 µM
same,GI50,MALME-3M melanoma,1.86 µM
same,TGI,MALME-3M melanoma,5.16 µM
same,GI50,BT-549 breast,2.95 µM
same,TGI,BT-549 breast,16.3 µM
Cc1ccc(S(=O)(=O)N[C@@H](Cc2ccccc2)C(=O)CCl)cc1,GI50,K-562 leukemia,4.26 µM
same,TGI,K-562 leukemia,31.4 µM
same,TGI,EKVX NSCLC,36 µM
same,GI50,CAKI-1 renal,16.7 µM
same,TGI,CAKI-1 renal,34.7 µM
same,GI50,HS 578T breast,21.2 µM
same,TGI,HS 578T breast,64.1 µM
same,GI50,DU-145 prostate,11.1 µM
same,TGI,DU-145 prostate,26.1 µM
same,GI50,MOLT-4 leukemia,1.99 µM
same,TGI,MOLT-4 leukemia,> 100 µM
same,GI50,U251 CNS,9.3 µM
same,TGI,U251 CNS,24.5 µM
same,GI50,MALME-3M melanoma,18.1 µM
same,TGI,MALME-3M melanoma,40 µM
same,GI50,BT-549 breast,6.64 µM
same,TGI,BT-549 breast,24 µM
